Data from patent US12543736B2, “Herbicidal compositions comprising mesotrione” (BASF SE, priority 2024, dated 2026).

What was measured:
Assay type in all cases: in vivo
Digitaria sanguinalis = assay: Example 3 post-emergence field trial, DIGSA; conditions: height 10-15 cm; for % herbicidal activity A-1 / % herbicidal activity B: 42 DAT
Description: (§1) In the examples below, using the method of S. R. Colby (1967) “Calculating synergistic and antagonistic responses of herbicide combinations”, Weeds 15, p. 22ff., the value E, which is expected if the activity of the individual active compounds is only additive, was calculated: [formula] • where • X=percent activity using active herbicide A at an application rate a; • Y=percent activity using active herbicide B (e.g. mesotrione) at an application rate b; • E=expected activity (in %) by A+B at application rates a+b. If the value found experimentally is higher than the value E calculated according to Colby, a synergistic effect is present. Evaluation was carried out using a scale from 0 to 100. 100 means no emergence of the plants, or complete destruction of at least the above-ground parts, and 0 means no damage or normal course of growth. A good herbicidal activity is given at values of at least 70, and very good herbicidal activity is given at values of at least 85. Post-Emergence Application of Herbicide A-1 (A-1) and Mesotrione (B) in Field Trials Herbicide A-1 (342 g/l) and mesotrione (100 g/l) were, together with addition of 0.5 v/v % MSO (methylated sed oil) as adjuvant, formulated in water as distribution medium (water volume 200 l/ha) and sprayed with commercial flat fan nozzles.

Hordeum vulgare = assay: Example 3 post-emergence field trial, HORVX; conditions: height 20-25 cm
Description: as §1

Amaranthus retroflexus = assay: Example 3 post-emergence field trial, AMARE; conditions: height 10-12 cm; for % herbicidal activity A-1 / % herbicidal activity B: 42 DAT
Description: as §1

Glycine max = assay: Example 3 post-emergence field trial, GLXMA; conditions: height 7-11 cm
Description: as §1

Echinochloa crus-galli = assay: Example 1 post-emergence greenhouse trial, ECHCG; conditions: growth stage 14, 21 DAT
Description: (§2) In the examples below, using the method of S. R. Colby (1967) “Calculating synergistic and antagonistic responses of herbicide combinations”, Weeds 15, p. 22ff., the value E, which is expected if the activity of the individual active compounds is only additive, was calculated: [formula] • where • X=percent activity using active herbicide A at an application rate a; • Y=percent activity using active herbicide B (e.g. mesotrione) at an application rate b; • E=expected activity (in %) by A+B at application rates a+b. If the value found experimentally is higher than the value E calculated according to Colby, a synergistic effect is present. The culture containers used were plastic pots containing loamy sand with approximately 3.0% of humus as substrate. The seeds of the test plants were sown separately for each species. For the post-emergence treatment, the test plants were grown to a plant height of from 3 to 15 cm, depending on the plant habit, and only then treated with the active compounds which had been suspended or emulsified in water. To this end, the test plants were either sown directly, and grown in the same containers, or they were first grown separately as seedlings and transplanted into the test containers a few days prior to treatment. Depending on the species, the plants were kept at 10-25° C. and 20-35° C., respectively. The test period extended over 2 to 4 weeks. During this time, the plants were tended and their response to the individual treatments was evaluated. Evaluation was carried out using a scale from 0 to 100. 100 means no emergence of the plants, or complete destruction of at least the above-ground parts, and 0 means no damage or normal course of growth. A good herbicidal activity is given at values of at least 70, and very good herbicidal activity is given at values of at least 85. Post-Emergence Application of Herbicide A-1 (A-1) and Mesotrione (B) in Greenhouse Trials Herbicide A-1 (50 g/l) and mesotrione (480 g/l) were, together with addition of 1 v/v % MSO (methylated sed oil) as adjuvant, formulated in water as distribution medium (water volume 200 l/ha) and sprayed with commercial flat fan nozzles.

Kochia scoparia = assay: Example 1 post-emergence greenhouse trial, KCHSC; conditions: growth stage 19, 21 DAT
Description: as §2

Brachiaria decumbens = assay: Example 1 post-emergence greenhouse trial, BRADC; conditions: growth stage 13, 21 DAT, g ai/ha: A-1 4, B 62.5
Description: In the examples below, using the method of S. R. Colby (1967) “Calculating synergistic and antagonistic responses of herbicide combinations”, Weeds 15, p. 22ff., the value E, which is expected if the activity of the individual active compounds is only additive, was calculated: [formula] • where • X=percent activity using active herbicide A at an application rate a; • Y=percent activity using active herbicide B (e.g. mesotrione) at an application rate b; • E=expected activity (in %) by A+B at application rates a+b. If the value found experimentally is higher than the value E calculated according to Colby, a synergistic effect is present. The culture containers used were plastic pots containing loamy sand with approximately 3.0% of humus as substrate. The seeds of the test plants were sown separately for each species. For the post-emergence treatment, the test plants were grown to a plant height of from 3 to 15 cm, depending on the plant habit, and only then treated with the active compounds which had been suspended or emulsified in water. To this end, the test plants were either sown directly, and grown in the same containers, or they were first grown separately as seedlings and transplanted into the test containers a few days prior to treatment. […] During this time, the plants were tended and their response to the individual treatments was evaluated. […]

Lolium multiflorum = assay: Example 3 post-emergence field trial, LOLMU; conditions: height 20-25 cm
Description: as §1

[1] = 7 DAT, g ai/ha: A-1 12.5, B 105
[2] = 21 DAT, g ai/ha: A-1 12.5, B 105
[3] = 7 DAT, g ai/ha: A-1 12.5, B 210
[4] = 21 DAT, g ai/ha: A-1 12.5, B 210
[5] = 28 DAT, g ai/ha: A-1 12.5, B 105
[6] = 28 DAT, g ai/ha: A-1 12.5, B 210

`CCOC(=O)COc1ccccc1Oc1nc(-n2c(=O)cc(C(F)(F)F)n(C)c2=O)c(F)cc1Cl` [A-1, ethyl 2-[2-[[3-chloro-5-fluoro-6-[3-methyl-2,6-dioxo-4-(trifluoromethyl)pyrimidin-1-yl]-2-pyridyl]oxy]phenoxy]acetate] was tested, and the “% herbicidal activity A-1” value (Digitaria sanguinalis; A-1 12.5 g ai/ha) was 65%, the “% herbicidal activity A-1” value (Digitaria sanguinalis; A-1 18 g ai/ha) was 70% and the “% herbicidal activity” value (Digitaria sanguinalis; [1]) was 80%. For the same compound, the “% herbicidal activity” value (Digitaria sanguinalis; 7 DAT, g ai/ha: A-1 18, B 105) was 80%, the “% herbicidal activity” value (Digitaria sanguinalis; [2]) was 70% and the “% herbicidal activity” value (Digitaria sanguinalis; 21 DAT, g ai/ha: A-1 18, B 105) was 80%. For the same compound, the “% herbicidal activity A-1” value (Hordeum vulgare; 42 DAT, A-1 12.5 g ai/ha) was 95%, the “% herbicidal activity” value (Hordeum vulgare; [1]) was 70% and the “% herbicidal activity” value (Hordeum vulgare; [3]) was 60%. For the same compound, the “% herbicidal activity” value (Hordeum vulgare; 7 DAT, g ai/ha: A-1 18, B 105) was 80%, the “% herbicidal activity” value (Hordeum vulgare; 7 DAT, g ai/ha: A-1 18, B 210) was 70% and the “% herbicidal activity” value (Hordeum vulgare; [2]) was 70%. The “% herbicidal activity” value (Hordeum vulgare; [4]) was 60%, the “% herbicidal activity” value (Hordeum vulgare; 21 DAT, g ai/ha: A-1 18, B 105) was 85% and the “% herbicidal activity” value (Hordeum vulgare; 21 DAT, g ai/ha: A-1 18, B 210) was 70%. The “% herbicidal activity” value (Hordeum vulgare; [5]) was 70%, the “% herbicidal activity” value (Hordeum vulgare; [6]) was 70% and the “% herbicidal activity” value (Hordeum vulgare; 28 DAT, g ai/ha: A-1 18, B 105) was 90%. For the same compound, the “% herbicidal activity” value (Hordeum vulgare; 28 DAT, g ai/ha: A-1 18, B 210) was 70%, the “% herbicidal activity A-1” value (Amaranthus retroflexus; A-1 12.5 g ai/ha) was 80% and the “% herbicidal activity A-1” value (Amaranthus retroflexus; A-1 18 g ai/ha) was 85%. For the same compound, the “% herbicidal activity” value (Amaranthus retroflexus; [1]) was 85%, the “% herbicidal activity” value (Amaranthus retroflexus; [3]) was 80% and the “% herbicidal activity” value (Amaranthus retroflexus; 7 DAT, g ai/ha: A-1 18, B 105) was 93%. The “% herbicidal activity” value (Amaranthus retroflexus; 7 DAT, g ai/ha: A-1 18, B 210) was 90%, the “% herbicidal activity” value (Amaranthus retroflexus; [4]) was 80% and the “% herbicidal activity” value (Amaranthus retroflexus; 21 DAT, g ai/ha: A-1 18, B 105) was 80%. The “% herbicidal activity” value (Amaranthus retroflexus; 21 DAT, g ai/ha: A-1 18, B 210) was 75%, the “% herbicidal activity” value (Glycine max; [1]) was 90% and the “% herbicidal activity” value (Glycine max; 7 DAT, g ai/ha: A-1 18, B 105) was 90%. For the same compound, the “% herbicidal activity” value (Glycine max; [2]) was 92%, the “% herbicidal activity” value (Echinochloa crus-galli; g ai/ha: A-1 1, B 62.5) was 90% and the “% herbicidal activity” value (Echinochloa crus-galli; g ai/ha: A-1 4, B 62.5) was 90%. For the same compound, the “% herbicidal activity” value (Kochia scoparia; g ai/ha: A-1 0.5, B 62.5) was 65%, the “% herbicidal activity” value (Kochia scoparia; g ai/ha: A-1 1, B 62.5) was 65% and the “% herbicidal activity” value (Brachiaria decumbens) was 98%. The “% herbicidal activity” value (Lolium multiflorum; [1]) was 60%, the “% herbicidal activity” value (Lolium multiflorum; [3]) was 60% and the “% herbicidal activity” value (Lolium multiflorum; 7 DAT, g ai/ha: A-1 18, B 105) was 65%. For the same compound, the “% herbicidal activity” value (Lolium multiflorum; 7 DAT, g ai/ha: A-1 18, B 210) was 70%, the “% herbicidal activity” value (Lolium multiflorum; 21 DAT, g ai/ha: A-1 18, B 210) was 40% and the “% herbicidal activity” value (Lolium multiflorum; 28 DAT, g ai/ha: A-1 18, B 210) was 40%.
For `CS(=O)(=O)c1ccc(C(=O)C2C(=O)CCCC2=O)c([N+](=O)[O-])c1` [B, mesotrione], the “% herbicidal activity B” value (Digitaria sanguinalis; B 105 g ai/ha) was 55%, the “% herbicidal activity B” value (Digitaria sanguinalis; B 210 g ai/ha) was 70% and the “% herbicidal activity” value (Digitaria sanguinalis; [1]) was 50%. For the same compound, the “% herbicidal activity” value (Digitaria sanguinalis; 7 DAT, g ai/ha: A-1 18, B 105) was 50%, the “% herbicidal activity” value (Digitaria sanguinalis; [2]) was 65% and the “% herbicidal activity” value (Digitaria sanguinalis; 21 DAT, g ai/ha: A-1 18, B 105) was 65%. For the same compound, the “% herbicidal activity B” value (Hordeum vulgare; 42 DAT, B 210 g ai/ha) was 0%, the “% herbicidal activity” value (Hordeum vulgare; [1]) was 20% and the “% herbicidal activity” value (Hordeum vulgare; [3]) was 0%. The “% herbicidal activity” value (Hordeum vulgare; 7 DAT, g ai/ha: A-1 18, B 105) was 20%, the “% herbicidal activity” value (Hordeum vulgare; 7 DAT, g ai/ha: A-1 18, B 210) was 0% and the “% herbicidal activity” value (Hordeum vulgare; [2]) was 20%. The “% herbicidal activity” value (Hordeum vulgare; [4]) was 0%, the “% herbicidal activity” value (Hordeum vulgare; 21 DAT, g ai/ha: A-1 18, B 105) was 20% and the “% herbicidal activity” value (Hordeum vulgare; 21 DAT, g ai/ha: A-1 18, B 210) was 0%. The “% herbicidal activity” value (Hordeum vulgare; [5]) was 20%, the “% herbicidal activity” value (Hordeum vulgare; [6]) was 20% and the “% herbicidal activity” value (Hordeum vulgare; 28 DAT, g ai/ha: A-1 18, B 105) was 20%. The “% herbicidal activity” value (Hordeum vulgare; 28 DAT, g ai/ha: A-1 18, B 210) was 20%, the “% herbicidal activity B” value (Amaranthus retroflexus; B 210 g ai/ha (row with A-1 12.5)) was 65% and the “% herbicidal activity B” value (Amaranthus retroflexus; B 210 g ai/ha (row with A-1 18)) was 80%. The “% herbicidal activity” value (Amaranthus retroflexus; [1]) was 65%, the “% herbicidal activity” value (Amaranthus retroflexus; [3]) was 65% and the “% herbicidal activity” value (Amaranthus retroflexus; 7 DAT, g ai/ha: A-1 18, B 105) was 65%. For the same compound, the “% herbicidal activity” value (Amaranthus retroflexus; 7 DAT, g ai/ha: A-1 18, B 210) was 65%, the “% herbicidal activity” value (Amaranthus retroflexus; [4]) was 65% and the “% herbicidal activity” value (Amaranthus retroflexus; 21 DAT, g ai/ha: A-1 18, B 105) was 65%. For the same compound, the “% herbicidal activity” value (Amaranthus retroflexus; 21 DAT, g ai/ha: A-1 18, B 210) was 65%, the “% herbicidal activity” value (Glycine max; [1]) was 55% and the “% herbicidal activity” value (Glycine max; 7 DAT, g ai/ha: A-1 18, B 105) was 55%. The “% herbicidal activity” value (Glycine max; [2]) was 45%, the “% herbicidal activity” value (Echinochloa crus-galli; g ai/ha: A-1 1, B 62.5) was 65% and the “% herbicidal activity” value (Echinochloa crus-galli; g ai/ha: A-1 4, B 62.5) was 65%. The “% herbicidal activity” value (Kochia scoparia; g ai/ha: A-1 0.5, B 62.5) was 75%, the “% herbicidal activity” value (Kochia scoparia; g ai/ha: A-1 1, B 62.5) was 75% and the “% herbicidal activity” value (Brachiaria decumbens) was 20%. For the same compound, the “% herbicidal activity” value (Lolium multiflorum; [1]) was 30%, the “% herbicidal activity” value (Lolium multiflorum; [3]) was 30% and the “% herbicidal activity” value (Lolium multiflorum; 7 DAT, g ai/ha: A-1 18, B 105) was 30%. The “% herbicidal activity” value (Lolium multiflorum; 7 DAT, g ai/ha: A-1 18, B 210) was 30%, the “% herbicidal activity” value (Lolium multiflorum; 21 DAT, g ai/ha: A-1 18, B 210) was 30% and the “% herbicidal activity” value (Lolium multiflorum; 28 DAT, g ai/ha: A-1 18, B 210) was 30%.
